Data taken from PubChem BioAssay (NCI).
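Each compound was tested at five concentrations against cells in 96-well plates for 48 hours. At the TGI there is no net growth.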

What was measured:
Assay in all cases: NCI anticancer screen, dose series, 48 h
ACHN renal = test system: ACHN renal
COLO 205 colon = test system: COLO 205 colon
DU-145 prostate = test system: DU-145 prostate
EKVX NSCLC = test system: EKVX NSCLC
HCC-2998 colon = test system: HCC-2998 colon
HOP-92 NSCLC = test system: HOP-92 NSCLC
IGROV1 ovarian = test system: IGROV1 ovarian
KM12 colon = test system: KM12 colon
M14 melanoma = test system: M14 melanoma
OVCAR-8 ovarian = test system: OVCAR-8 ovarian
RPMI-8226 leukemia = test system: RPMI-8226 leukemia
RXF 393 renal = test system: RXF 393 renal
SF-268 CNS = test system: SF-268 CNS
SK-OV-3 ovarian = test system: SK-OV-3 ovarian
SN12C renal = test system: SN12C renal
SW-620 colon = test system: SW-620 colon
TK-10 renal = test system: TK-10 renal
HL-60(TB) leukemia = test system: HL-60(TB) leukemia
BT-549 breast = test system: BT-549 breast

Row | Compound | TGI (ACHN renal) | TGI (COLO 205 colon) | TGI (DU-145 prostate) | TGI (EKVX NSCLC) | TGI (HCC-2998 colon) | TGI (HOP-92 NSCLC) | TGI (IGROV1 ovarian) | TGI (KM12 colon) | TGI (M14 melanoma) | TGI (OVCAR-8 ovarian) | TGI (RPMI-8226 leukemia) | TGI (RXF 393 renal) | TGI (SF-268 CNS) | TGI (SK-OV-3 ovarian) | TGI (SN12C renal) | TGI (SW-620 colon) | TGI (TK-10 renal) | TGI (HL-60(TB) leukemia) | TGI (BT-549 breast)
1 | CC(=O)NC(CCCOC(C)=O)C(=O)NC(CCCOC(C)=O)C(=O)NC(CCCOC(C)=O)C(=O)NC(Cc1ccc([N+](=O)[O-])cc1)C(=O)NCC(=O)OCc1ccccc1 (stereo not given) | > 100 µM | > 100 µM | > 100 µM | > 100 µM | > 100 µM | > 100 µM | > 100 µM | > 100 µM | > 100 µM | > 100 µM | > 100 µM | > 100 µM | > 100 µM | > 100 µM | > 100 µM | > 100 µM | > 100 µM |  | 
2 | CCCC(=O)[O-].CCCC(=O)[O-].N.N.N.N.[Co+3].[O-][Cl+3]([O-])([O-])[O-] | > 100 µM | > 100 µM |  | > 100 µM | > 100 µM | > 100 µM | > 100 µM | > 100 µM | > 100 µM | > 100 µM | > 100 µM |  | > 100 µM | > 100 µM | > 100 µM | > 100 µM | > 100 µM | > 100 µM | 
3 | Nc1ccn(CC(CO)CC(c2ccccc2)P(=O)(O)O)c(=O)n1 (stereo not given) | > 100 µM | > 100 µM |  | > 100 µM | > 100 µM | > 100 µM | > 100 µM | > 100 µM | > 100 µM | > 100 µM | > 100 µM | > 100 µM | > 100 µM | > 100 µM | > 100 µM | > 100 µM | > 100 µM | > 100 µM | 
4 | Nc1ccc(-c2nc3ccc(Cc4ccc5nc(-c6ccc(N)cc6)oc5c4)cc3o2)cc1 | > 100 µM | > 100 µM | > 100 µM |  | > 100 µM | > 100 µM |  | > 100 µM | > 100 µM | > 100 µM | > 100 µM | > 100 µM | > 100 µM | > 100 µM | > 100 µM | > 100 µM | > 100 µM |  | 
5 | N#Cc1nc(NC(=O)c2ccccc2)sc1N | > 10 µM | > 10 µM | > 10 µM | > 10 µM | > 10 µM | > 10 µM | > 10 µM | > 10 µM | > 10 µM | > 10 µM | > 10 µM | > 10 µM | > 10 µM | > 10 µM | > 10 µM | > 10 µM | > 10 µM | > 10 µM | 
6 | CSC1CC2C(CC1(C)SC)C2(C)C (stereo not given) | > 100 µM | > 100 µM |  | > 100 µM | > 100 µM | 53.9 µM | > 100 µM | > 100 µM | > 100 µM | > 100 µM | 93.4 µM | > 100 µM | > 100 µM | > 100 µM |  | > 100 µM | > 100 µM | 58 µM | 
7 | COC(=O)C(CCSc1ccccc1)C(=O)OC | > 100 µM | > 100 µM |  | > 100 µM | > 100 µM | > 100 µM | > 100 µM | > 100 µM | > 100 µM | > 100 µM | > 100 µM | > 100 µM |  | > 100 µM | > 100 µM | > 100 µM |  | > 100 µM | > 100 µM
